Measurements taken from patent publication US9723989B2, “Ex vivo motility contrast imaging” (Purdue Research Foundation, priority 2015, dated 2017).

Test system: DLD-1 tumor spheroid
Test: Biodynamic imaging / tissue dynamics spectroscopy, combined (Het, Div) metric of drug response
Assay type: cell-based
Conditions: per-pixel TDS drug-response spectrograms, FIG. 14, FIG. 15
Source text: There are two light paths in the optical coherence imaging system. The laser source provides light which is intensity-controlled by the neutral density filter and size-controlled by lenses L1 and L2. Light is communicated through a half-wave plate, and is then communicated through a polarizing beam splitter (PBS1) which generates an object path and a reference path. Lenses L3 and L4 expand the reference beam, and lens L5 performs the Fourier transform of the back-scattered dynamic speckle from a target. The wave plates (half-wave plate and quarter-wave plate) and the PBS2 ensure most of the laser power is in the object beam, and most of the back-scattered signal reaches the charge coupled device (CCD). The target is often a multicellular tumor spheroid, but can be any living biological specimen that is sufficiently immobilized, such as living tissue obtained by surgical biopsy or by needle biopsy. In TDS experiments, the images are captured at a fixed-depth (usually the mid-plane of the tumor tissue). For example, if the tumor spheroid has a diameter of 500 microns, the images captured by the CCD camera are the Fourier Domain back-scattered dynamic speckle holograms at the fixed depth of 250 microns in the tumor spheroid. Conversely, sections from multiple depths can be acquired to obtain stacks of images that are reconstructed into three-dimensional optical coherence volumetric images. In each 4 min interval, 2 acquisition rates are applied. First 200 images are captured at 25 fps; then another 100 images are captured at 0.5 fps. Thus after combining the high frequency data and the low frequency data together, in each 4 min interval (each data set), the spectrum frequency range is from 0.005 Hz to 12.5 Hz across more than 3 orders of magnitude.
The high-frequency acquisition generates a series of image frames in which the speckle varies in intensity from frame to frame. These intensities are analyzed using a Fourier transform to generate a high-frequency spectrum. The low-frequency acquisition similarly generates a low-frequency spectrum. These high- and low-frequency spectra overlap over a frequency range. A stitching algorithm is performed that combined the high- and low-frequency spectra into a single broad-band spectrum. This spectrum relates to the 300 images and constitutes one time-point spectrum. The process is repeated to generate a series of time-point spectra.
The outcome of the heterogeneity sampling can be encapsulated in a small number of metrics that are communicated to the operator. […]
An example of spatial non-uniformity is shown in FIG. 14 for the Raf inhibitor drug Sorafenib applied to a DLD-1 tumor spheroid. […] These spectrograms were analyzed for intensity and for spectral content. […]

| SMILES | Heterogeneity (Het) - how spatially uniform is the response | Diversity (Div) - phenotypic diversity, difference in spectrogram features / spectral content |
| --- | --- | --- |
| CNC(=O)c1cc(Oc2ccc(NC(=O)Nc3ccc(Cl)c(C(F)(F)F)c3)cc2)ccn1 [Sorafenib] | 0.83 | – |
| CC(=O)O[C@H]1C(=O)[C@@]2(C)[C@H]([C@H](OC(=O)c3ccccc3)[C@]3(O)C[C@H](OC(=O)[C@H](O)[C@@H](NC(=O)c4ccccc4)c4ccccc4)C(C)=C1C3(C)C)[C@]1(OC(C)=O)CO[C@@H]1C[C@@H]2O [taxol] | high spatial heterogeneity | spectral content appears the same for core and shell |
| CC(C)[C@@H]1NC(=O)[C@H](C)OC(=O)[C@@H](C(C)C)NC(=O)[C@@H](C(C)C)OC(=O)[C@H](C(C)C)NC(=O)[C@H](C)OC(=O)[C@@H](C(C)C)NC(=O)[C@@H](C(C)C)OC(=O)[C@H](C(C)C)NC(=O)[C@H](C)OC(=O)[C@@H](C(C)C)NC(=O)[C@@H](C(C)C)OC1=O [valinomycin] | One of the most uniform | – |
